The source of these data is paper PMC9693575, “Isopropyl Amino Acid Esters Ionic Liquids as Vehicles for Non-Steroidal Anti-Inflammatory Drugs in Potential Topical Drug Delivery Systems with Antimicrobial Activity” (International Journal of Molecular Sciences, 2022).

Format in all cases: cell-based
Holding throughout (set-up): key to Inhibition diameter: -: no growth of the organism

In one assay the test system is Escherichia coli. In words: Disc diffusion antimicrobial susceptibility test, Escherichia coli. The protocol:
(§1) The plates were incubated for 24 h at 37 °C.
Background: A growth-free zone around the sample is the usual read-out of agar diffusion tests.

A further assay concerns Micrococcus Luteus. Put plainly: Disc diffusion antimicrobial susceptibility test, Micrococcus luteus.
In assay [1] the test system is Staphylococcus epidermidis. In words: Disc diffusion antimicrobial susceptibility test, Staphylococcus epidermidis. The method, then: as §1
[2] abbreviates: solution transferred to disc 25 mg cm^−3.
Setting [3] is: solution transferred to disc 50 mg cm^−3.
The mark [4] stands for this setting: solution transferred to disc 100 mg cm^−3.
Where [5] appears, read: solution transferred to disc 200 mg cm^−3.
[6] abbreviates: solution transferred to disc 400 mg cm^−3.
The mark [7] stands for this setting: solution transferred to disc 600 mg cm^−3.
Setting [8] is: solution transferred to disc 1000 mg cm^−3.
Where [9] appears, read: solution transferred to disc 800 mg cm^−3.

Structures are written as SMILES.

Turning to `CC(C(=O)O)c1cccc(C(=O)c2ccccc2)c1.CC(C)OC(=O)C(N)C(C)C` (mixture of isomers) [[L-ValOiPr][KETO]], the Inhibition diameter entry in the assay with Escherichia coli (setting [2]) is “-”; in the assay on Escherichia coli (setting [3]) it was “-”; in the assay on Escherichia coli (setting [4]), “-”; with Escherichia coli (setting [5]), 6.7 ± 0.3 mm; in the assay with Escherichia coli (setting [6]), 7.0 ± 0.2 mm; in the assay with Escherichia coli (setting [7]), 7.6 ± 0.3 mm. Also, the Inhibition diameter worked out at 8.3 ± 0.4 mm with Escherichia coli (setting [8]); 6.3 ± 0.2 mm in the assay on Micrococcus Luteus (setting [2]); 7.4 ± 0.1 mm in the assay on Micrococcus Luteus (setting [3]); 8.5 ± 0.3 mm with Micrococcus Luteus (setting [4]); 9.1 ± 0.3 mm in the assay on Micrococcus Luteus (setting [5]); 10.3 ± 0.2 mm in the assay on Micrococcus Luteus (setting [6]). Also, the Inhibition diameter in the assay with Micrococcus Luteus (setting [7]) is given as 11.7 ± 0.1 mm; in the assay with Micrococcus Luteus (setting [8]), 15.1 ± 0.2 mm; in assay [1] (setting [2]) it was “-”; in assay [1] (setting [3]), “-”; in assay [1] (setting [4]), “-”; in assay [1] (setting [5]), “-”. The Inhibition diameter was 6.2 ± 0.1 mm in assay [1] (setting [6]), 6.3 ± 0.1 mm in assay [1] (setting [7]), 6.3 ± 0.2 mm in assay [1] (setting [9]) and 6.9 ± 0.2 mm in assay [1] (setting [8]).
As to `CC(C(=O)O)c1cccc(C(=O)c2ccccc2)c1.CC(C)OC(=O)C(N)C(C)O` (mixture of isomers) [[L-ThrOiPr][KETO], L-threonine isopropyl ester ketoprofenate], the Inhibition diameter result with Escherichia coli (setting [2]), in the assay with Escherichia coli (setting [3]), with Escherichia coli (setting [4]), in the assay with Escherichia coli (setting [5]), in the assay with Escherichia coli (setting [6]) and in the assay on Escherichia coli (setting [7]) was “-” in each case. Further, the Inhibition diameter result is “-” in the assay with Escherichia coli (setting [8]); “-” in the assay with Micrococcus Luteus (setting [2]); “-” with Micrococcus Luteus (setting [3]); “-” in the assay with Micrococcus Luteus (setting [4]); 7.4 ± 0.3 mm in the assay with Micrococcus Luteus (setting [5]); 9.6 ± 0.1 mm with Micrococcus Luteus (setting [6]). Also, the Inhibition diameter in the assay with Micrococcus Luteus (setting [7]) was 14.3 ± 0.2 mm; in the assay on Micrococcus Luteus (setting [9]) it was 15.4 ± 0.2 mm; with Micrococcus Luteus (setting [8]) it was 17.4 ± 0.1 mm; in assay [1] (setting [2]) it was “-”; in assay [1] (setting [3]), “-”; in assay [1] (setting [4]), “-”. Also, the Inhibition diameter entry in assay [1] (setting [5]), in assay [1] (setting [6]), in assay [1] (setting [7]), in assay [1] (setting [9]) and in assay [1] (setting [8]) was “-” each time. Besides, the “inhibition zone (in words)” value in assay [1] (S. epidermidis, tested concentrations) is “no inhibition zone was observed”.
On to `CC(C(=O)O)c1cccc(C(=O)c2ccccc2)c1.CSCCC(N)C(=O)OC(C)C` (mixture of isomers) [[L-MetOiPr][KETO], L-methionine isopropyl ester ketoprofenate], for which the Inhibition diameter entry in the assay with Escherichia coli (setting [2]) is recorded as “-”; in the assay on Escherichia coli (setting [3]) it was “-”; in the assay on Escherichia coli (setting [4]), 7.3 ± 0.5 mm; with Escherichia coli (setting [5]), 8.0 ± 0.6 mm; in the assay on Escherichia coli (setting [6]), 8.9 ± 0.5 mm; with Escherichia coli (setting [7]), 10.6 ± 0.7 mm. Also, the Inhibition diameter in the assay on Escherichia coli (setting [8]) is reported as 12.9 ± 0.4 mm; in the assay with Micrococcus Luteus (setting [2]), “-”; in the assay with Micrococcus Luteus (setting [3]), 7.2 ± 0.2 mm; in the assay with Micrococcus Luteus (setting [4]) it was 8.2 ± 0.2 mm; in the assay with Micrococcus Luteus (setting [5]), 8.5 ± 0.3 mm; in the assay on Micrococcus Luteus (setting [6]) it was 9.2 ± 0.1 mm. The Inhibition diameter in the assay with Micrococcus Luteus (setting [7]) is reported as 9.6 ± 0.2 mm; in the assay on Micrococcus Luteus (setting [9]), 12.4 ± 0.2 mm; in the assay with Micrococcus Luteus (setting [8]), 14.3 ± 0.2 mm; in assay [1] (setting [2]) it was “-”; in assay [1] (setting [3]) it was “-”; in assay [1] (setting [4]), “-”. The Inhibition diameter result was “-” in assay [1] (setting [5]); “-” in assay [1] (setting [6]); “-” in assay [1] (setting [7]); “-” in assay [1] (setting [9]); 7.4 ± 0.2 mm in assay [1] (setting [8]).
Turning to `CC(C(=O)O)c1cccc(C(=O)c2ccccc2)c1.CC[C@H](C)[C@H](N)C(=O)OC(C)C` [[L-IleOiPr][KETO], L-isoleucine isopropyl ester ketoprofenate], the Inhibition diameter result in the assay on Escherichia coli (setting [2]), in the assay with Escherichia coli (setting [3]), with Escherichia coli (setting [4]), in the assay with Escherichia coli (setting [5]), in the assay on Escherichia coli (setting [6]) and with Escherichia coli (setting [7]) was “-” each time. The Inhibition diameter entry in the assay with Escherichia coli (setting [8]) is listed as “-”; with Micrococcus Luteus (setting [2]), “-”; in the assay with Micrococcus Luteus (setting [3]), 6.3 ± 0.2 mm; in the assay with Micrococcus Luteus (setting [4]) it was 6.6 ± 0.3 mm; with Micrococcus Luteus (setting [5]), 7.1 ± 0.2 mm; in the assay with Micrococcus Luteus (setting [6]), 7.3 ± 0.1 mm. In addition, the Inhibition diameter in the assay with Micrococcus Luteus (setting [7]) is reported as 8.3 ± 0.2 mm; in the assay with Micrococcus Luteus (setting [9]), 8.4 ± 0.3 mm; with Micrococcus Luteus (setting [8]) it was 9.4 ± 0.2 mm; in assay [1] (setting [2]), “-”; in assay [1] (setting [3]) it was “-”; in assay [1] (setting [4]) it was “-”. Also, the Inhibition diameter entry in assay [1] (setting [5]) is “-”; in assay [1] (setting [6]) it was 6.2 ± 0.1 mm; in assay [1] (setting [7]), 7.3 ± 0.2 mm; in assay [1] (setting [9]), 8.3 ± 0.1 mm; in assay [1] (setting [8]), 10.4 ± 0.2 mm.
